The target of data set [1] is T1, mTOR kinase (mTORC1 and mTORC2 kinase complex) (Homo sapiens, UniProt P42345).
T1 construct: purchased DiscoverX; host or cells: HEK-293
The data set can be described thus: In vitro evaluation of mTOR kinase inhibitory activity (DiscoverX ligand-bead competition binding, qPCR readout). The protocol:
Experimental Embodiment 1: In Vitro Evaluation of mTOR Kinase Inhibitory Activity This experiment was performed by DiscoverX. All materials and methods were obtained from DiscoverX.
Kinase activity analysis.
1. Labeled mTOR kinase was stably expressed in HEK-293 cells.
2. Streptavidin magnetic beads were treated with biotinylated small molecule ligands at room temperature for 30 minutes to produce affinity resin for kinase analysis;
3. Ligand beads were blocked with excess biotin and washed with buffer (1% bovine serum albumin, […]) to remove unbound ligand and non-specifically bound ligand;
4. The assembly of kinase and ligand and affinity beads, and the binding reaction between the compound and the three were performed in buffer (20% blocking buffer, 0.17x phosphate buffer, 0.05% Tween […]);
5. The test compounds were dissolved in dimethyl sulfoxide;
6. All test compounds were dissolved in DMSO, and then directly diluted […]
7. The solution was placed in a 384-well polypropylene plate, wherein the volume of each well was 0.02 mL;
8. The plate was shaked for an hour at room temperature;
9. The plate was washed with buffer (1× PBS, 0.05% Tween 20);
10. The affinity beads were resuspended in buffer (1× PBS, 0.05% Tween […] non-biotin affinity ligand) and incubated at room temperature for 30 minutes;
11. The kinase concentration in the eluate was deteced by qPCR.
Background: In qPCR the cycle at which signal appears reflects the starting amount.

Data set [2] relates to HT-29 cell. The data set is described as follows: Cell proliferation inhibitory activity (Cell-Titer-Glo), HT-29. Format: cell-based. The conditions noted are these: 3 days incubation. The text has this: (§1) Experimental Embodiment 2: Evaluation of Cell Proliferation Inhibitory Activity
(§2) Experiment objective: To detect cell proliferation inhibitory activity of the tested compounds.
(§3) Experimental principle: The luciferase in the Cell-Titer-Glo reagent produces oxyluciferin using luciferin, oxygen and ATP as reaction substrates, and releases energy in the form of light. Since the reaction of luciferase requires ATP, the total amount of light generated by the reaction is proportional to the total amount of ATP that reflects cell viability.
(§4) Cell lines: MCF-7 cell line […], HT-29 cell line (ATCC-HTB-38), OE21 (ECACC-96062201), NCI-N87 cell line (ATCC-CRL-5822)
(§5) Cell culture medium: (RPMI 1640 culture medium (Invitrogen #1868546; 10% serum Invitrogen #1804958; L-glutamine 1×, Invitrogen #1830863; dual antibiotic Hyclone #J170012))
(§6) Cell Titer-Glo® Luminescent Cell Viability Assay Kit (Promega #G7573)
(§7) The cells were inoculated in a 384- or 96-well plate with a density of 1000 cells per well and 25 μL per well according to the instructions of the cell inoculating plate. The edge wells were not inoculated with cells, and was supplemented with […].
(§8) (i) The mother solution of the compound was 10 mM, and diluted with DMSO to an initial concentration of 4 mM. The compound was added to the compound mother solution, 9 μL per well.
(§9) (ii) The compound was diluted with ECHO liquid-handling workstation. Each well of the cell plate was added with 125 nL compound. Each well of the cell wells in 2nd column and 23rd column was added with 125 nL DMSO, and each of the PBS wells in 1st column and 24th column was added with 125 nL DMSO.
(§10) (iii) Each well of the cell plate was supplemented with 25 μL culture medium, the final volume in each well of the cell plate was 50 μL, […] 3 times dilution, 10 concentrations, each concentration was duplicated in left and right wells, the final DMSO concentration was 0.25%.
(§11) 2.3. After addition of the compound, centrifugation was performed at 1000 rpm for 1 min, and the cell plate was placed in a 37° C., 5% CO2 incubator for 3 days.
(§12) The cell plate was taken out from the incubator and equilibrated at room temperature for 30 minutes. 25 μL Cell-Titer-Glo reagent was added to each well, shaken for one minute to mix thoroughly, centrifuged at 1000 rpm for 1 minute. After 10 minutes, the plate was read on PerkinElmer Envision with a […] reading time was set at 0.2 second.

Data set [3] has as its system MCF-7 cell. The data set can be described thus: Cell proliferation inhibitory activity (Cell-Titer-Glo), MCF-7. The conditions noted are these: Homo sapiens, MCF7, 72 h; 3 days incubation. The format is cell-based.
Description: as §1, §2, §3, §4, §5, §6, §7, §8, §9, §10, §11, §12

Data set [4] has as its system N87 cell. The data set can be described thus: Cell proliferation inhibitory activity (Cell-Titer-Glo), N87. The conditions noted are these: 72 h; 3 days incubation. The format is cell-based.
Description: as §1, §2, §3, §4, §5, §6, §7, §8, §9, §10, §11, §12

A short description of data set [5]: Pharmacokinetic evaluation in plasma after IV and PO administration. Format: in vivo. As to conditions: female Balb/c mice; for MRT inf: read-out: MRT0-inf; for MRT last: read-out: MRT0-last. The protocol:
Experimental Embodiment 3: Pharmacokinetic Evaluation
The test compound was mixed with […] (Cremophor EL), vortexed and sonicated to prepare a 1 mg/mL near-clear solution, which was filtered with a microporous filter membrane for future use. Female Balb/c mice of 18 to 20 grams were selected and the solution of the test compound was administered intravenously at a dose of 1 or 2 mg/kg. The test compound was mixed with an aqueous solution of 1% Tween 80, 9% polyethylene glycol 400, and 90% water, vortexed and sonicated to prepare 1 mg/mL near-clear solution, which was filtered with a microporous filter membrane for future use.
Female Balb/c mice of 18 to 20 grams were selected, and the solution of the test compound was orally administered at a dose of 2 or 10 mg/kg. The whole blood was collected at a certain time, and prepared into plasma. The drug concentration was analyzed by LC-MS/MS, and the pharmacokinetic parameters were calculated using Phoenix WinNonlin software (Pharsight Corporation, USA).

Where two headings read alike, the source gives them in different places.

The Kd is the concentration at which binding is half-saturated. For orientation: IC50 means the concentration needed to halve the response being measured. The term AUC(0-inf) denotes total exposure, with the tail of the curve extrapolated. The low end stands for less exposure, the high end for more exposure. As usually defined, the AUC(0-t) is exposure summed from dosing to a finite time, without extrapolation to infinity. Low readings indicate less exposure, high ones more exposure. Usually half-life stands for the time in which the quantity being followed falls by half. Higher therefore signals slow loss. The Cmax is the peak of the concentration-time curve. By Tmax is commonly meant the time from dosing to the highest level. One may read the bioavailability as dose-corrected exposure relative to a reference, in per cent. A low value points to poor availability.

With `CNC(=O)c1cccc(-c2ccc3c(N4CCOCC4C)nc(N4CCOC5(CCOC5)C4)nc3n2)c1` (single isomer, unassigned) [Embodiment 32-1], in data set [1], the Kd is 0.79 nM. Besides, the IC50 in data set [2] (Homo sapiens, HT-29, 72 h) came out at 744 nM.

For the compound `CNC(=O)c1cccc(-c2ccc3c(N4CCOCC4C)nc(N4CCOC5(CCOC5)C4)nc3n2)c1` (single isomer, unassigned) [Embodiment 32-2], in data set [1], the dissociation constant Kd amounted to 1.5 nM. For the same compound, the IC50 in data set [2] was found to be 1410 nM.

For the compound `CNC(=O)c1cccc(-c2ccc3c(N4CCOCC4C)nc(N4CCOC5(CC(O)C5)C4)nc3n2)c1` (single isomer, unassigned) [Embodiment 33-1], binding in data set [1] was characterised by a dissociation constant (Kd) of 0.78 nM. Also, in data set [2] (Homo sapiens, HT-29, 72 h), the IC50 came to 1970 nM.

With `CNC(=O)c1cccc(-c2ccc3c(N4CCOCC4C)nc(N4CCOC5(CC(O)C5)C4)nc3n2)c1` (single isomer, unassigned) [Embodiment 33-2], the Kd in data set [1] turned out to be 0.38 nM. This compound also came in with an IC50 in data set [2] of 1250 nM.

Compound `CNC(=O)c1cccc(-c2ccc3c(N4CCOCC4C)nc(N4CCOC5(CC(OC)C5)C4)nc3n2)c1` (single isomer, unassigned) [Embodiment 34-1] had a Kd in data set [1] of 1 nM. The same compound showed an IC50 in data set [2] (Homo sapiens, HT-29, 72 h) of 1050 nM.

For `CNC(=O)c1cccc(-c2ccc3c(N4CCOCC4C)nc(N4CCOC5(CC(OC)C5)C4)nc3n2)c1` (single isomer, unassigned) [Embodiment 34-2], the equilibrium dissociation constant (Kd) in data set [1] is 0.73 nM. The same compound displayed a half-maximal inhibitory concentration (IC50) in data set [2] of 833 nM.

On to `CNC(=O)c1cccc(-c2ccc3c(N4CCOCC4C)nc(N4CC5(CCOC5)OCC4C)nc3n2)c1` (single isomer, unassigned) [Embodiment 48-2], for which the Kd in data set [1] was found to be 0.7 nM. The same compound gave an IC50 in data set [3] of 176 nM.

The compound `CC1COCCN1c1nc(N2CCOC3(CCOC3)C2)nc2nc(-c3cccc(C(N)=O)c3)ccc12` (single isomer, unassigned) [Embodiment 50-2] came in with a Kd in data set [1] of 0.7 nM. The same compound had a concentration for half-maximal inhibition (IC50) in data set [3] of 636 nM.

On to `CNC(=O)c1cccc(-c2ccc3c(N4C5CCC4COC5)nc(N4CCOC5(CC5)C4)nc3n2)c1` [Embodiment 9], for which the dissociation constant Kd in data set [1] is 0.34 nM. The compound further came in with an IC50 in data set [3] of 262 nM.

As to `CNC(=O)c1cccc(-c2ccc3c(N4CCOCC4C)nc(N4CCC5(CC4)OCCO5)nc3n2)c1` (centres unmarked) [Embodiment 12], in data set [1], the affinity, expressed as Kd, was 0.75 nM. In addition, in data set [3], the IC50 was determined as 251 nM.

In data set [1], `CNC(=O)c1cccc(-c2ccc3c(N4CCOC[C@@H]4C)nc(N4CCOC5(CCOCC5)C4)nc3n2)c1` [Embodiment 13] registered an equilibrium dissociation constant (Kd) of 0.64 nM. The same compound gave a half-maximal inhibitory concentration (IC50) in data set [3] of 255 nM.

In turn, `C[C@H]1COCCN1c1nc(N2CCOC3(CC3)C2)nc2nc(-c3cccc(C(=O)NC4CC4)c3)ccc12` [Embodiment 21] returned a dissociation constant (Kd) in data set [1] of 0.47 nM. The compound further had a concentration for half-maximal inhibition (IC50) in data set [3] of 190 nM.

Take `CNC(=O)c1cccc(-c2ccc3c(N4CCOC[C@@H]4C)nc(N4CCOC5(CCCC5)C4)nc3n2)c1` [Embodiment 24]: the Kd in data set [1] amounted to 0.41 nM. The concentration for half-maximal inhibition (IC50) in data set [3] stood at 206 nM.

`CNC(=O)c1cccc(-c2ccc3c(N4CC5CCC(C4)O5)nc(N4CCOC5(CC5)C4)nc3n2)c1` [Embodiment 26] returned an equilibrium dissociation constant (Kd) in data set [1] of 1 nM. Inhibition in data set [3] was half-maximal at 431 nM (IC50).

The compound `C[C@H]1COCCN1c1nc(N2CCOCC3(CCC3)C2)nc2nc(-c3cccc(C(N)=O)c3)ccc12` [Embodiment 36] yielded an IC50 in data set [3] of 360 nM.

`CNC(=O)c1cccc(-c2ccc3c(N4CCOC[C@@H]4C)nc(N4CCOCC5(CCC5)C4)nc3n2)c1` [Embodiment 37]: the IC50 in data set [3] was determined as 252 nM.

Take `C[C@H]1COCCN1c1nc(N2CCOCC3(CC3)C2)nc2nc(-c3cccc(C(N)=O)c3)ccc12` [Embodiment 38]: in data set [3], 449 nM corresponded to half-maximal inhibition (IC50).

With `CNC(=O)c1cccc(-c2ccc3c(N4CCOC[C@@H]4C)nc(N4CCOCC5(CC5)C4)nc3n2)c1` [Embodiment 39], 268 nM corresponded to half-maximal inhibition in data set [3] (IC50).

Consider `C[C@H]1COCCN1c1nc(N2CCOC3(COC3)C2)nc2nc(-c3cccc(C(N)=O)c3)ccc12` [Embodiment 52], for which, in data set [1], binding was put at a Kd of 0.8 nM. For the same compound, the IC50 in data set [3] turned out to be 586 nM.

For the compound `COc1ccc(-c2ccc3c(N4CCOC[C@@H]4C)nc(N4CCOC5(CC5)C4)nc3n2)cc1CO` [Embodiment 54], half-maximal inhibition in data set [4] (IC50) was put at 119 nM.

Regarding `CNC(=O)c1cc(-c2ccc3c(N4CCOC[C@@H]4C)nc(N4CCOC5(CC5)C4)nc3n2)ccc1OC` [Embodiment 55], in data set [4], the IC50 turned out to be 120 nM. In data set [5] (IV 1 mg/kg), the AUCExtra is recorded as 0.0522%, the AUMCExtra is recorded as 0.540% and the Tlast is 12 h. In data set [5] (PO 2 mg/kg), this compound gave an AUCExtra of 0.0673%, an AUMCExtra of 0.493% and a Tlast of 12.0 h. In data set [5] (mouse, IV 1 mg/kg), this compound returned an area under the curve AUC(0-inf) of 9.47 µM·h, an AUC(0-t) of 9.46 µM·h, a C0 of 9.7 µM and a clearance of 3.49 mL/min/kg. Moreover, in data set [5] (mouse, IV 1 mg/kg), the half-life is 1.01 h, the MRT inf came out at 1.3 h and the MRT last stood at 1.29 h. Further, the Vd in data set [5] (mouse, IV 1 mg/kg, read-out: Vdss) amounted to 0.272 L/kg. In data set [5] (mouse, PO 2 mg/kg), the AUC(0-inf) worked out at 16.3 µM·h, the exposure AUC(0-t) is 16.3 µM·h, the Cmax was determined as 7.73 µM and the time of peak concentration (Tmax) amounted to 0.5 h. In addition, in data set [5] (mouse, PO 2 mg/kg), the bioavailability turned out to be 86.1%, the half-life is 1.15 h, the MRT inf was determined as 1.86 h and the MRT last stood at 1.86 h.

For the compound `COc1ccc(-c2ccc3c(N4CCOC[C@@H]4C)nc(N4CCOC5(CC5)C4)nc3n2)cc1C(N)=O` [Embodiment 56], in data set [4], inhibition was half-maximal at 167 nM (IC50).

The values above are taken from patent publication US11377444B2, “Pyridopyrimidine compounds acting as mTORC 1/2 dual inhibitors” (MEDSHINE DISCOVERY INC., priority 2017, dated 2022).
